Data reported in ChEMBL document CHEMBL1201862, “PubChem BioAssay data set” (2004).
Where a name gives a salt, the structure may show the parent alone. Active and inactive are the calls of the source.

Legend:
[1] = Luminescence Cell-Based Dose Response HTS to Identify Inhibitors of 5'UTR Stem-Loop Driven Prion Protein mRNA Translation in H4 Neuroglioblastoma Cells. [Related pubchem assays: 1827 (Project Summary), 1813 (Primary HTS)]; format: functional
[2] = luciferase reporter signal suppression in cells – H4 neuroglioma cells, luminescence, dose response (AID 1990); format: functional, cell-based
[3] = molecular target: T1, DNA repair protein RAD52 homolog (Homo sapiens, UniProt P43351); format: functional, biochemical
T1 sequence (P43351 whole entry): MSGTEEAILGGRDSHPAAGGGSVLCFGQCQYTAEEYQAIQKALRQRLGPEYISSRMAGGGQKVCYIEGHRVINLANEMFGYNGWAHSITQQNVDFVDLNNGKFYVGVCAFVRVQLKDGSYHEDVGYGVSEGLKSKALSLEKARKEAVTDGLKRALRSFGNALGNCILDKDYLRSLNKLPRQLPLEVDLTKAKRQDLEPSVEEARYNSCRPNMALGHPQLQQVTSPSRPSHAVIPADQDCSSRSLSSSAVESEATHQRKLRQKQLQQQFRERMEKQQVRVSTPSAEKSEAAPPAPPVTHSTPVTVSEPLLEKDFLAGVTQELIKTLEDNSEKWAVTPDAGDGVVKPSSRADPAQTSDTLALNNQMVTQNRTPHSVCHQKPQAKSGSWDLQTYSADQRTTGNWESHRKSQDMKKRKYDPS

[4] = alpha-synuclein stem-loop luciferase translation blockers – H4 neuroglioma cells, luminescence, confirmation (AID 1988); format: functional, cell-based
[5] = molecular target: T2, Adenosylmethionine-8-amino-7-oxononanoate aminotransferase (Mycobacterium tuberculosis, UniProt P9WQ81); experiment: Mycobacterium tuberculosis BioA enzyme inhibitor Measured in Biochemical System Using Plate Reader - 2163-02_Inhibitor_Dose_CherryPick_Activity.; format: functional, Mycobacterium tuberculosis UT205
T2 sequence (P9WQ81 whole entry): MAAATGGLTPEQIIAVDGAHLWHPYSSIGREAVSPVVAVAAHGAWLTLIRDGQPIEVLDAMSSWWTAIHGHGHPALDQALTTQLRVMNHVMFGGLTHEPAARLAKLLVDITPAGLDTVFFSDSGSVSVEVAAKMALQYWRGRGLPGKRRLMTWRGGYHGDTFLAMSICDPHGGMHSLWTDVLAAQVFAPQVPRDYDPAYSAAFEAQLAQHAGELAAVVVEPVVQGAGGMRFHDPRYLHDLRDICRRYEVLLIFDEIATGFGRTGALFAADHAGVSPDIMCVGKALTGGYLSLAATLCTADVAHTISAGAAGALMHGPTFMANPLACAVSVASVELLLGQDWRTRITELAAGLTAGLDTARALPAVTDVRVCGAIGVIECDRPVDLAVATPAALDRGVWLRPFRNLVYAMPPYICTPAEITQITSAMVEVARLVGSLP

Prothrombin = Prothrombin (Bos taurus, UniProt P00735); experiment: thrombin protease inhibitors – biochemical, fluorescence polarization, uHTS hits, dose response (AID 602369); format: functional
[6] = molecular target: 26S proteasome non-ATPase regulatory subunit 14 (Homo sapiens, UniProt O00487); experiment: inhibition of proteasome subunit RPN11 – biochemical, fluorescence polarization, uHTS hits, confirmation (AID 602368); format: functional
Chain of 26S proteasome non-ATPase regulatory subunit 14 (O00487 whole entry): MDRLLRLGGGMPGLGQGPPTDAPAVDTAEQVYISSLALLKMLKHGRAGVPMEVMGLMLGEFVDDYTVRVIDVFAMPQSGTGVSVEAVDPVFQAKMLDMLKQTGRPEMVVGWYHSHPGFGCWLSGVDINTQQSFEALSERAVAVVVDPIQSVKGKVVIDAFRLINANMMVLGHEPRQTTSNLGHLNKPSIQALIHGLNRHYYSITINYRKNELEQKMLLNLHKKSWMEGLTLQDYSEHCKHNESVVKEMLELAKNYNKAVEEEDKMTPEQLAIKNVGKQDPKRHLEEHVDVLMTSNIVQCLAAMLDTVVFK

[7] = molecular target: T3, Small ubiquitin-related modifier 1 (Homo sapiens, UniProt P63165); experiment: SUMO1 protein interaction blockers, potency – biochemical, fluorescence polarization, uHTS hits, dose response (AID 624382); format: functional; settings: read-out: IC50_Mean
T3 sequence (P63165 whole entry): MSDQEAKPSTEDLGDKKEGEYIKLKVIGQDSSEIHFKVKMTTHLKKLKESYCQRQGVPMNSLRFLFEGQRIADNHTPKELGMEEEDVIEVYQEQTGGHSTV

[8] = molecular target: T3, Small ubiquitin-related modifier 1; experiment: SUMO1 protein-protein binding blockers, potency – biochemical, FRET, dose response (AID 624383); format: functional; settings: read-out: IC50_Mean
[9] = molecular target: 72 kDa type IV collagenase (Homo sapiens, UniProt P08253); experiment: Dose Response validation of uHTS RPN11 inhibitor hits using a MMP-2 Fluorescence assay.; format: functional
Chain of 72 kDa type IV collagenase (P08253 whole entry): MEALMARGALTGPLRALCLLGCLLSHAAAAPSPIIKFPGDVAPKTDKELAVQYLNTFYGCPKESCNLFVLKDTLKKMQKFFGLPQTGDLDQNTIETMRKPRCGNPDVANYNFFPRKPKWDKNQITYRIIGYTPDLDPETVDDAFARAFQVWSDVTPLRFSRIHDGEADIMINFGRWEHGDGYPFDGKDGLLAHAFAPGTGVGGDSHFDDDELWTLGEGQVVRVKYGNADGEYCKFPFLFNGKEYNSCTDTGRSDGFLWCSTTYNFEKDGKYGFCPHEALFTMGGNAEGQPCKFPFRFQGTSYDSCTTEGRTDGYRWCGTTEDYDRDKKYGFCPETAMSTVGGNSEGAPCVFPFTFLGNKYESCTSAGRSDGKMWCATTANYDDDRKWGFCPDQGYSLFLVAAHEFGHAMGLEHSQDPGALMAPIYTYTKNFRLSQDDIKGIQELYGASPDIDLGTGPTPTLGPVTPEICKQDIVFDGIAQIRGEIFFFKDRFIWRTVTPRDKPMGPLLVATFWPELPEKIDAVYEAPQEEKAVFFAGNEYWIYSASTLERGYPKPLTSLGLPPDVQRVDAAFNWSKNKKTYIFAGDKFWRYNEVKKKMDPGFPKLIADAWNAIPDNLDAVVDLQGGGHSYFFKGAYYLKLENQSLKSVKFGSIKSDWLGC

cells [10] = format: functional, cell-based
[11] = molecular target: T4, Trace amine-associated receptor 1 (Homo sapiens, UniProt Q96RJ0); experiment: Counterscreen for agonists of the human trace amine associated receptor 1 (hTAAR1): Fluorescence-based cell-based high throughput dose response assay to identify hTAAR1 agonist that also desensitize TAAR1 receptor response.; format: functional
T4 sequence (Q96RJ0 whole entry): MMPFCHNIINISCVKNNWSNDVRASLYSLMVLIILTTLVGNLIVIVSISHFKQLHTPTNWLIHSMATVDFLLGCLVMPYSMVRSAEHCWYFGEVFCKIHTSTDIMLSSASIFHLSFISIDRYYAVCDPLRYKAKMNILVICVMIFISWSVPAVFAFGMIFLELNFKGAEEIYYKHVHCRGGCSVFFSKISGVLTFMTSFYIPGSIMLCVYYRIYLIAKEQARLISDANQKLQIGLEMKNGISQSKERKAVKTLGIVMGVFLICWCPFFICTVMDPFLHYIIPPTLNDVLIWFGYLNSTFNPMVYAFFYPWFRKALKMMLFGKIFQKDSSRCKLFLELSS

cells [12] = format: functional, cell-based; remark: listed apart in the source
[13] = molecular target: T4, Trace amine-associated receptor 1; experiment: Fluorescence-based cell-based high throughput dose response assay to identify agonists of the human trace amine associated receptor 1 (TAAR1).; format: functional
[14] = tested on: Streptococcus sp. 'group A'; experiment: Streptococcus pyogenes SK(-)GAS viability under kanamycin – luminescence, BacTiterGlo, confirmation, counter-screen for streptokinase expression inhibitor project, dose response (AID 1900); format: functional, organism-based
[15] = molecular target: T5, Corticotropin-releasing factor receptor 2/Corticotropin-releasing factor-binding protein (Homo sapiens, UniProt P24387+Q13324); experiment: activators of CRF receptor 2 with binding protein – uHTS hits, confirmation (AID 602473); format: functional; settings: read-out: EC50_Mean
T5 sequence (Q13324 whole entry): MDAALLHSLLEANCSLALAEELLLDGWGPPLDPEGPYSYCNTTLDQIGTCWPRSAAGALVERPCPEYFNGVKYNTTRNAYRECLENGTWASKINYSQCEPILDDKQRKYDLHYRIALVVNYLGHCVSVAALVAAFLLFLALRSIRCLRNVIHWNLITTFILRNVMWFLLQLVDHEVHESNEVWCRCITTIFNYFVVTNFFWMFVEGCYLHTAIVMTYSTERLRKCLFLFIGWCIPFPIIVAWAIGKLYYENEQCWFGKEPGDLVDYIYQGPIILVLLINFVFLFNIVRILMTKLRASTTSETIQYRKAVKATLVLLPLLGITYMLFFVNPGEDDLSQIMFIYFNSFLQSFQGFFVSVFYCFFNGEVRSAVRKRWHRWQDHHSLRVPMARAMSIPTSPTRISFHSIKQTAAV
T5 sequence (P24387 whole entry): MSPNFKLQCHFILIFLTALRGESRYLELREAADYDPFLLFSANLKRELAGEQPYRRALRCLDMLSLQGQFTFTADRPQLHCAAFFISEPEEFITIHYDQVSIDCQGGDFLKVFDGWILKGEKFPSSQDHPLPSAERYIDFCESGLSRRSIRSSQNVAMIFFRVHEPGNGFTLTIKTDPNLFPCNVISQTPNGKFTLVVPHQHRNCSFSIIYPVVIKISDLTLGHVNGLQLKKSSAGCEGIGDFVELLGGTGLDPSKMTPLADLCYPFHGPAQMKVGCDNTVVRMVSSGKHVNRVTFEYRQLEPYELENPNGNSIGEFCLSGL

Streptococcus = experiment: GAS UMAA2166 growth inhibition – luminescence, BacTiterGlo, counter-screen for streptokinase expression inhibitor project, dose response (AID 1915); format: functional, organism-based;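 further: potency for reduction of bacterial viability or growth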
Streptokinase A = molecular target: T6, Streptokinase A (Streptococcus pyogenes serotype M1, UniProt P10520); experiment: viability-normalized secreted streptokinase activity reduction – plasminogen activation absorbance, OD405, dose response (AID 1914); format: functional, Streptococcus pyogenes M1 GAS;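 further: secreted streptokinase activity via plasminogen activation per viability signal from cell pellet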
T6 sequence (P10520 whole entry): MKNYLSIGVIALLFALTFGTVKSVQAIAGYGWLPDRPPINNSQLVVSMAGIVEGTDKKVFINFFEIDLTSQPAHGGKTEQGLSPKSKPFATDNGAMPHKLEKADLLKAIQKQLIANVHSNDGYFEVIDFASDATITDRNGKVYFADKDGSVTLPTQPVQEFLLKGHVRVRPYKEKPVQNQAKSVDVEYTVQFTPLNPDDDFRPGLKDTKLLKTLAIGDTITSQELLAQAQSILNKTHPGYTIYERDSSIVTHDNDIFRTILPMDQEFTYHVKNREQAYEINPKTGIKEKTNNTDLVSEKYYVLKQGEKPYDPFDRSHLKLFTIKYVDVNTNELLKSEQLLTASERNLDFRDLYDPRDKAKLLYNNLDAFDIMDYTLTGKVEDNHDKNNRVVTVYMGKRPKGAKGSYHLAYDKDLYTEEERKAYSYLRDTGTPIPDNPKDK

[16] = molecular target: T5, Corticotropin-releasing factor receptor 2/Corticotropin-releasing factor-binding protein; experiment: Dose Response confirmation of uHTS hits for small molecule antagonists of the CRF-binding protein and CRF-R2 receptor complex.; format: functional; settings: read-out: IC50_Mean
[17] = blockers of CRF-binding protein–CRF-R2 complex – cell-based, uHTS hits, 384-well, dose response (AID 651639); format: functional, Homo sapiens; settings: read-out: IC50_Mean
H9c2 = experiment: cells; format: functional, cell-based; settings: Rattus norvegicus, H9c2, Myocardium;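 further: confirmatory concentration-response retest of ultra-high-throughput screening hits for modulation of myocardial damage; cell death induced by hydrogen peroxide oxidative stress; compound pretreatment for 60 min then peroxide exposure for 2 h; potency is for protecting the cells against peroxide damage rather than for killing them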
[18] = molecular target: T7, Fructose-bisphosphate aldolase (Mycobacterium tuberculosis, UniProt P9WQA3); experiment: Fluorescence-based biochemical high throughput dose response assay for inhibitors of the fructose-bisphosphate aldolase (FBA) of M. tuberculosis.; format: functional
T7 sequence (P9WQA3 whole entry): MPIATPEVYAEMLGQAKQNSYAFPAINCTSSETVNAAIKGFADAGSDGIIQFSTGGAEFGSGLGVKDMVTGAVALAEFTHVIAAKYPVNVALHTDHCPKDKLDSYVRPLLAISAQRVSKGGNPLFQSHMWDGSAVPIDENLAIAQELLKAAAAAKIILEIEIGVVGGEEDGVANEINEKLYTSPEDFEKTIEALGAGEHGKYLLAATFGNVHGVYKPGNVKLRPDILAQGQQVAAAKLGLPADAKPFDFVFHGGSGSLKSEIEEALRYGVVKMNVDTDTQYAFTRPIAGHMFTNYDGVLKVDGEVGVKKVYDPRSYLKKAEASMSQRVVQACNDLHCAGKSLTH

CN1CCN(C2Cc3cc(Cl)ccc3Sc3cc(F)ccc32)CC1 (stereo not given)
EC50 [1]: > 120 µM (not active) | EC50 [2]: > 120 µM (not active) | AC50 [3]: 18.1 µM (active) | EC50 [4]: 8.62 µM (active)

COc1ccc(C2c3c(oc4ccc(Cl)cc4c3=O)C(=O)N2CCN2CCOCC2)cc1 (stereo not given)
AC50 [5]: 3.7 µM (active)

CC(=O)c1ccc(NC(=O)CN2CCN(c3ccccc3)CC2)cc1
AC50 [5]: 8.6 µM (active)

O=C(c1ccc(S(=O)(=O)Nc2ccccc2F)cc1)N1CCN(c2ccccc2O)CC1
AC50 [5]: 3.62 µM (active)

CCC(CO)Oc1cc(NC(=O)c2ccc(N)cc2)c2ncn(C(C)C)c2c1 (stereo not given)
IC50 (Prothrombin): > 100 µM (inactive) | IC50 [6]: 19.6 µM (active) | IC50 [7]: > 66.6 µM (inactive) | IC50 [8]: 9.23 µM (active) | IC50 [9]: 64.6 µM (active)

CCn1c(C)c(C(C)=O)c(NCc2ccccc2)nc1=S
AC50 [3]: 11 µM (active)

O=S(=O)(NCCc1ccccc1)c1ccc(F)cc1
IC50 (cells [10]): > 29.9 µM (inactive) | IC50 [11]: 4.22 µM (active) | EC50 (cells [12]): > 29.9 µM (inactive) | EC50 [13]: 1.37 µM (active)

CCc1ccc(N2CN(CCc3ccccc3)CN=C2S)cc1
IC50 (cells [10]): > 29.9 µM (inactive) | IC50 [11]: 9.18 µM (active) | EC50 (cells [12]): > 29.9 µM (inactive) | EC50 [13]: 2.26 µM (active)

Cc1ccccc1-c1cc2nc(-c3ccc([N+](=O)[O-])cc3)cc(O)n2n1
EC50 [14]: 9.23 µM (active) | EC50 [15]: > 53 µM (inactive) | EC50 (Streptococcus): 60.1 µM (active) | EC50 (Streptokinase A): > 150 µM (not active) | IC50 [16]: 4.74 µM (active) | IC50 [17]: 3.21 µM (active)

CC1=CC(C)(C)N2C(=O)C3(C(C#N)=C(N)Oc4cc(O)ccc43)c3c(C)c(C)cc1c32 (stereo not given)
EC50 [15]: > 53 µM (inactive) | IC50 [16]: 29.4 µM (active) | IC50 [17]: 16.5 µM (active)

CC1(C)CC(=O)C2=C(C1)N(CCN1CCOCC1)C1=C(C(=O)CC(C)(C)C1)C2c1ccc(Cl)cc1
IC50 (H9c2): > 79 µM (inactive) | IC50 [18]: 2.33 µM (active)

Cc1nn(S(=O)(=O)c2cccs2)c(C)c1Sc1ccc([N+](=O)[O-])cc1
EC50 [15]: > 53 µM (inactive) | IC50 [16]: < 0.368 µM (active) | IC50 [17]: 12.8 µM (active)

CNC(=O)C[C@H]1CC[C@@H]2[C@H](COC[C@@H](O)CN2C(=O)Nc2ccc3c(c2)OCO3)O1
AC50 [5]: 10.4 µM (active)

CC1(C)Oc2cc3oc(C(=O)O)cc(=O)c3cc2-c2ccccc21
IC50 [18]: > 0.37 µM (active)

O=C(Cc1nnc(O)nc1O)N/N=C/c1ccccc1
IC50 (cells [10]): > 29.9 µM (inactive) | IC50 [11]: > 29.9 µM (inactive) | EC50 (cells [12]): > 29.9 µM (inactive) | EC50 [13]: > 29.9 µM (inactive)

c1ccc2c(c1)CCCC2C1=NCCN1 (stereo not given) [TETRAHYDROZOLINE HYDROCHLORIDE]
IC50 (cells [10]): > 29.9 µM (inactive) | IC50 [11]: 0.157 µM (active) | EC50 (cells [12]): > 29.9 µM (inactive) | EC50 [13]: 0.154 µM (active)
